PubChem BioAssay AID1695 (PCMD, 2009)
Active and inactive are the calls of the source. The rule behind the calls is not given here.

Molecular target: dTDP-4-dehydrorhamnose reductase (Mycobacterium tuberculosis (strain ATCC 25618 / H37Rv)) + dTDP-4-dehydrorhamnose 3,5-epimerase (Mycobacterium tuberculosis (strain ATCC 25618 / H37Rv)) (UniProt P9WH09+P9WH11)
Assay: Coupled RmlC and RmlD enzyme inhibition, Mycobacterium tuberculosis, dose response confirmation (AID 1695)
Conditions: coupled RmlC/RmlD enzyme assay

Chain of dTDP-4-dehydrorhamnose reductase (Mycobacterium tuberculosis (strain ATCC 25618 / H37Rv)) + dTDP-4-dehydrorhamnose 3,5-epimerase (Mycobacterium tuberculosis (strain ATCC 25618 / H37Rv)) (P9WH09 whole entry, looked up): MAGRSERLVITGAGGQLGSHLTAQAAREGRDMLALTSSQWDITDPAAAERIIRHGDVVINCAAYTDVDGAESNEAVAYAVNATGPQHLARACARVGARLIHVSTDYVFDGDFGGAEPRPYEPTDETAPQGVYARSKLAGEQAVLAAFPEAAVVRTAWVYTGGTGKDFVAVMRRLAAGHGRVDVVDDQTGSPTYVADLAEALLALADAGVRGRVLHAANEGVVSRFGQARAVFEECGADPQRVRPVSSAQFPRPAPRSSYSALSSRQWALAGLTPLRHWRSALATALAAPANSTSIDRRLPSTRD
Chain of dTDP-4-dehydrorhamnose reductase (Mycobacterium tuberculosis (strain ATCC 25618 / H37Rv)) + dTDP-4-dehydrorhamnose 3,5-epimerase (Mycobacterium tuberculosis (strain ATCC 25618 / H37Rv)) (P9WH11 whole entry, looked up): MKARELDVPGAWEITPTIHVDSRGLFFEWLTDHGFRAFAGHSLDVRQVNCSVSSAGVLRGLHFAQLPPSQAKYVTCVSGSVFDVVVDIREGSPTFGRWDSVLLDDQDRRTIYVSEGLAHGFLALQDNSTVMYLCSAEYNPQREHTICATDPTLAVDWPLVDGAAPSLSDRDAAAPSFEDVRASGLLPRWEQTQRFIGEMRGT

Row | SMILES | IC50
1 | CCOC(=O)C1=C(CSc2nc(-c3ccccc3)ccc2C#N)OC(N)=C(C#N)C1c1cccnc1 (stereo unspecified) | inactive
2 | CC1=C(C#N)C(c2cccnc2)C2=C(CC(C)(C)CC2=O)N1 (stereo unspecified) | inactive
3 | CCCCCCc1cc2cc(-c3nnc(-c4ccccc4OC)o3)c(=O)oc2cc1O | inactive
4 | COC(=O)/C(=C/Nc1cccc2ccccc12)[N+](=O)[O-] | inactive
5 | COc1ccc(OC)c(/C=N/NC(=O)CC2C(=O)NN=C2C)c1 (stereo unspecified) | inactive
6 | C=CCOC(=O)C1=C(C)NC(SCC(=O)NC(=O)OCC)=C(C#N)C1c1cccnc1 (stereo unspecified) | inactive
7 | COc1ccccc1N=c1oc2cc(O)ccc2cc1C(N)=O | inactive
8 | CC1=CC(c2ccccc2)n2nc(NS(=O)(=O)c3ccc(C)cc3)nc2N1 (stereo unspecified) | inactive
9 | O=C1CCC(=O)N1c1nc2nc(-c3ccccc3)cc(-c3ccccc3)n2n1 | inactive
10 | COC(=O)C1=CNC=C(C(=O)OC)C1c1cccc(OC)c1 | inactive
11 | CC1=C(C#N)C(c2cccnc2)C2=C(CCCC2=O)N1 (stereo unspecified) | inactive
